# Legend:
# [1] = Elimination rate in healthy human at […], po; assay type: ADME, organism-based; design: route oral; settings: in vivo
# [2] = Cmax in healthy human at […] administered via nasogastric tube by ITT analysis; assay type: ADME, organism-based; design: route nasogastric; settings: in vivo, po
# [3] = Cmax in healthy human at 400 mg, po; settings: in vivo
# [4] = Terminal half life in healthy human at […] administered via nasogastric tube; assay type: ADME, organism-based; settings: in vivo
# [5] = Cmax in healthy human at […], po by ITT analysis; assay type: ADME, organism-based; design: route oral; settings: in vivo
# [6] = AUClast in healthy human at […], po; assay type: ADME, organism-based; design: time 0 - last, route oral; settings: plasma
# [7] = AUC (0 to infinity) in healthy human at […], po; assay type: ADME, organism-based; design: route oral, time infinity; settings: plasma
# [8] = Apparent oral clearance in healthy human at […], po; assay type: ADME, organism-based; design: route oral; settings: in vivo
# [9] = AUC (0 to infinity) in healthy human at […], po by ITT analysis; assay type: ADME, organism-based; design: time infinity, route oral; settings: plasma
# [10] = Tmax in healthy human at […] administered via nasogastric tube; assay type: ADME, organism-based; settings: in vivo
# [11] = Apparent oral clearance in healthy human at […] administered via nasogastric tube; assay type: ADME, organism-based; design: route oral; settings: in vivo
# [12] = Elimination rate in healthy human at […] administered via nasogastric tube; assay type: ADME, organism-based; settings: in vivo
# [13] = AUClast in healthy human at […] administered via nasogastric tube by ITT analysis; assay type: ADME, organism-based; design: time 0 - last, route nasogastric; settings: plasma, po
# [14] = AUClast in healthy human at […] administered via nasogastric tube; assay type: ADME, organism-based; design: route nasogastric, time 0 - last; settings: plasma, po
# [15] = AUC (0 to infinity) in healthy human at […] administered via nasogastric tube; assay type: ADME, organism-based; design: route nasogastric, time infinity; settings: plasma, po
# [16] = Tmax in healthy human at 400 mg, po; settings: in vivo
# [17] = Terminal half life in healthy human at […], po; assay type: ADME, organism-based; design: route oral; settings: in vivo
# [18] = Cmax in healthy human at […] administered via nasogastric tube; assay type: ADME, organism-based; design: route nasogastric; settings: in vivo, po
# [19] = AUC (0 to infinity) in healthy human at […] administered via nasogastric tube by ITT analysis; assay type: ADME, organism-based; design: route nasogastric, time infinity; settings: plasma, po
# [20] = AUClast in healthy human at […], po by ITT analysis; assay type: ADME, organism-based; design: time 0 - last, route oral; settings: plasma
structure (smiles),measurement,setting,value
CC[C@@H]([C@H](C)O)n1ncn(-c2ccc(N3CCN(c4ccc(OC[C@@H]5CO[C@@](Cn6cncn6)(c6ccc(F)cc6F)C5)cc4)CC3)cc2)c1=O [POSACONAZOLE],k el,[1],9.72e-06 s⁻¹
same,Cmax,[2],0.233 µg/mL
same,Cmax,[3],0.324 µg/mL
same,half-life,[4],23.7 h
same,Cmax,[5],0.289 µg/mL
same,AUC(0-t),[6],10.4 µg·h/mL
same,AUC(0-inf),[7],10.9 µg·h/mL
same,CL/F,[8],822 mL/min
same,AUC(0-inf),[9],9.39 µg·h/mL
same,Tmax,[10],4 h
same,CL/F,[11],990 mL/min
same,k el,[12],8.61e-06 s⁻¹
same,AUC(0-t),[13],6.95 µg·h/mL
same,AUC(0-t),[14],8.03 µg·h/mL
same,AUC(0-inf),[15],8.4 µg·h/mL
same,Tmax,[16],4 h
same,half-life,[17],21.6 h
same,Cmax,[18],0.266 µg/mL
same,AUC(0-inf),[19],7.21 µg·h/mL
same,AUC(0-t),[20],9.1 µg·h/mL

# — ChEMBL document CHEMBL1649520, “Pharmacokinetics of posaconazole administered orally or by nasogastric tube in healthy volunteers” (Antimicrob Agents Chemother, 2009)
